Assay results reported in patent US12252481B2, “Anti-viral compounds” (Aligos Therapeutics, Inc., priority 2021, dated 2025).
Read-outs that look alike come from different tables or passages of the source.

Key:
SARS-Cov-2 3CLpro = target: T1, SARS-Cov-2 3CLpro (Severe acute respiratory syndrome coronavirus 2, UniProt P0DTD1); assay: biochemical; settings: 3CLpro, 30 mins preincubation, SAMDI-MS
T1 construct: 3CLpro and HRV3C was added using a Multidrop Combi

HRV3C = target: T2, HRV3C (Human rhinovirus 14, UniProt P03303); assay: biochemical; parameters: species or system HRV; settings: HRV3C, 30 mins preincubation, SAMDI-MS; read-out: HRV IC50 (bound)
T2 construct: 3CLpro and HRV3C was added using a Multidrop Combi
T2 sequence (P03303 1538-1719): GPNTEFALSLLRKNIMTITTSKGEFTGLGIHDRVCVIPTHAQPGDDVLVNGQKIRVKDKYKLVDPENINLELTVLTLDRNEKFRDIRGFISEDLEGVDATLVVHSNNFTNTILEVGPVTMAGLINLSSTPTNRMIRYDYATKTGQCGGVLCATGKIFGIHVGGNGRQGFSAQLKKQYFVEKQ

[1] = system: human beta-coronavirus OC43; assay: OC43 coronavirus antiviral assay in HeLa cells (cytopathic effect, cell-titer-glo); assay type: cell-based; settings: Betacoronavirus 1, OC43, HeLa, 144 h, 6 days at 33° C.
[2] = system: SARS-CoV-2-GHB-03021/2020; assay type: cell-based; settings: read-out: VeroE6 + CP (EC50)
[3] = system: B.1.1.7 lineage SARS-CoV-2; assay: microbe, parasite or virus in culture; assay type: cell-based
human cathepsin L = target: T3, human cathepsin L (Homo sapiens, UniProt P07711); assay: Cathepsin L assay (Z-FR-AMC fluorescence); assay type: biochemical; settings: 10 pM human cathepsin L, 30 mins preincubation, Z-FR-AMC 2 μM
T3 construct: purchased R&D Systems
T3 sequence (P07711 114-333): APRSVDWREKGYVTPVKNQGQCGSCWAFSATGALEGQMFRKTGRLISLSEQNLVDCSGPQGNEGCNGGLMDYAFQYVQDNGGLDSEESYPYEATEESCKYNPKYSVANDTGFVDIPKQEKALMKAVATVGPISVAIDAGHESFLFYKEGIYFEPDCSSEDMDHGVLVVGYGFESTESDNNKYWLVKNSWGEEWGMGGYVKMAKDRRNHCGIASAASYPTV
Procedure: For the cathepsin L assay, 10 pM of human cathepsin L (R&D Systems; Minneapolis, MN) was preincubated for 30 mins with test compounds. Reactions were initiated by the addition of a peptide substrate Z—FR-AMC (final concentration 2 μM, Anaspec; Fremont, CA). Fluorescence was measured at 2-minute intervals for 30 mins using a 355/460 excitation/emission filter module on an Envision plate reader (Perkin Elmer; Waltham, MA). The IC50 values were calculated for each assay by fitting the curves using a four-parameter equation in GraphPad Prism.

[4] = read-out: SARS-Cov-2 IC50 (class)
[5] = Severe acute respiratory syndrome coronavirus 2, 96 h; read-out: A549-dual_ACE2_TMPRSS2 (EC50)
[6] = Severe acute respiratory syndrome coronavirus 2, 96 h; […]; numeric bounds given instead of class symbols; read-out: A549-dual_ACE2_TMPRSS2 (EC50)

Compound	IC50 (SARS-Cov-2 3CLpro; [4]) [µM]	IC50 (HRV3C) [µM]	EC50 ([1]; read-out: EC50 (class)) [µM]	EC50 [2] [µM]	EC50 [3, 5] [µM]	IC50 (human cathepsin L) [µM]	EC50 ([3]; Severe acute respiratory syndrome coronavirus 2, 96 h, read-out: A549-dual_ACE2_TMPRSS2 (EC50)) [µM]	EC50 ([1]; read-out: EC50 (bound)) [µM]	EC50 [3, 6] [µM]	IC50 (SARS-Cov-2 3CLpro; read-out: SARS-Cov-2 IC50 (bound)) [µM]
Cc1nnc(N[C@H](C(=O)N2C[C@H]3[C@@H]([C@H]2C(=O)N[C@H](C#N)C[C@@H]2CCNC2=O)[C@H]2C=C[C@@H]3C2)C(C)(C)C)o1 [Compound 43, (1S,3aR,4S,7R,7aS)-N-((S)-1-cyano-2-((S)-2-oxopyrrolidin-3-yl)ethyl)-2-((S)-3,3-dimethyl-2-((5-methyl-1,3,4-oxadiazol-2-yl)amino)butanoyl)-2,3,3a,4,7,7a-hexahydro-1H-4,7-methanoisoindole-1-carboxamide]	< 0.02	> 10	0.1 to 1	0.1 to 1	0.1 to 1	≥ 10	–	–	–	–
CC(C)(C)[C@H](NC(=O)C1(C2CC2)CC1)C(=O)N1C[C@H]2[C@@H]([C@H]1C(=O)N[C@H](C#N)C[C@@H]1CCNC1=O)[C@H]1C=C[C@@H]2C1 [Example 35, (1R,2S,3S,6R,7S)-4-[(2S)-2-{[1,1′-bi(cyclopropane)]-1-ylformamido}-3,3-dimethylbutanoyl]-N-[(1S)-1-cyano-2-[(3S)-2-oxopyrrolidin-3-yl]ethyl]-4-azatricyclo[5.2.1.0^{2,6}]dec-8-ene-3-carboxamide]	0.02 to 0.2	> 10	0.1 to 1	0.1 to 1	1 to 10	≥ 10	–	–	–	–
N#C[C@H](C[C@@H]1CCNC1=O)NC(=O)[C@@H]1[C@@H]2[C@H](CN1C(=O)[C@@H]1C[C@]13CCc1ccccc13)[C@@H]1C=C[C@H]2C1 (single isomer, unassigned) [Example 38, (1S,3aR,4S,7R,7aS)-N-((S)-1-cyano-2-((S)-2-oxopyrrolidin-3-yl)ethyl)-2-((1R*,2R*)-2′,3′-dihydrospiro[cyclopropane-1,1′-indene]-2-carbonyl)-2,3,3a,4,7,7a-hexahydro-1H-4,7-methanoisoindole-1-carboxamide]	–	–	1 to 10	0.1 to 1	–	≥ 10	1 to 10	–	–	–
COC(C)(C)[C@H](NC(=O)C(F)(F)C(F)(F)F)C(=O)N1C[C@H]2[C@@H]([C@H]1C(=O)N[C@H](C#N)C[C@@H]1CCNC1=O)[C@H]1C=C[C@@H]2C1 [Compound 131]	< 0.02	> 0.5	< 0.1	–	< 0.1	≥ 10	–	–	–	–
CC(F)(F)[C@H](NC(=O)C(F)(F)F)C(=O)N1C[C@H]2[C@@H]([C@H]1C(=O)N[C@H](C#N)C[C@@H]1CCNC1=O)[C@H]1C=C[C@@H]2C1 [Compound 133]	< 0.02	> 0.5	< 0.1	–	0.1 to 1	≥ 10	–	–	–	–
COC(C)(C)C(=O)N[C@H](C(=O)N1C[C@H]2[C@@H]([C@H]1C(=O)N[C@H](C#N)C[C@@H]1CCNC1=O)[C@H]1C=C[C@@H]2C1)C(C)(C)C [Compound 77]	0.02 to 0.2	> 10	1 to 10	–	0.1 to 1	≥ 10	–	–	–	–
CC(C)(C)[C@H](NC(=O)C(F)(F)F)C(=O)N1C[C@H]2[C@@H]([C@H]1C(=O)N[C@H](C#N)C[C@@H]1CCNC1=O)[C@H]1CC[C@@H]2O1 (relative stereo) [Compound 58b]	0.2 to 2	> 10	1 to 10	–	1 to 10	≥ 10	–	–	–	–
CC(C)(C)[C@H](NC(=O)C(F)(F)F)C(=O)N1C[C@H]2[C@@H]([C@H]1C(=O)N[C@H](C#N)C[C@@H]1CCNC1=O)[C@H]1C=C[C@@H]2C1F (stereo in doubt) [Example 91, (1S,3aS,4S,7R,7aR,8S)—N-((S)-1-cyano-2-((S)-2-oxopyrrolidin-3-yl)ethyl)-2-((S)-3,3-dimethyl-2-(2,2,2-trifluoroacetamido)butanoyl)-8-fluoro-2,3,3a,4,7,7a-hexahydro-1H-4,7-methanoisoindole-1-carboxamide]	< 0.02	> 0.5	< 0.1	–	< 0.1	≥ 10	–	–	–	–
CC(C)(C)[C@H](NC(=O)C(F)(F)F)C(=O)N1C[C@H]2[C@@H]([C@H]1C(=O)N[C@H](C#N)CC1CC3(CC(F)(F)C3)NC1=O)[C@H]1C=C[C@@H]2C1 (mixture of isomers) [Example 83, (1R,2S,3S,6R,7S)—N-[(1S)-1-cyano-2-{2,2-difluoro-6-oxo-5-azaspiro[3.4]octan-7-yl}ethyl]-4-[(2S)-3,3-dimethyl-2-(2,2,2-trifluoroacetamido)butanoyl]-4-azatricyclo[5.2.1.0^{2,6}]dec-8-ene-3-carboxamide]	< 0.02	> 10	< 0.1	–	< 0.1	≥ 10	–	–	–	–
CC(C)(C)[C@H](NC(=O)C(F)(F)F)C(=O)N1C[C@H]2[C@H]3CC[C@H](CC3)[C@H]2[C@@H]1C(=O)N[C@H](C#N)C[C@@H]1CCNC1=O [Compound 71a]	2 to 20	> 10	–	–	–	≥ 10	–	> 10	> 10	–
CC(C)(C)[C@H](NC(=O)C(F)(F)F)C(=O)N1C[C@@H]2[C@@H]([C@@H]3CC[C@H]2O3)[C@@H]1C(=O)N[C@H](C#N)C[C@@H]1CCNC1=O (relative stereo) [Compound 58a]	–	> 10	–	–	–	≥ 10	–	> 10	> 10	> 10
CC(C)(C)[C@H](NC(=O)C(F)(F)C(F)(F)F)C(=O)N1C[C@H]2[C@@H]([C@H]1C(=O)N[C@H](C#N)C[C@@H]1CCNC1=O)[C@H]1C=C[C@@H]2C1 [Compound 76, (1S,3aR,4S,7R,7aS)-N-((S)-1-cyano-2-((S)-2-oxopyrrolidin-3-yl)ethyl)-2-((S)-3,3-dimethyl-2-(2,2,3,3,3-pentafluoropropanamido)butanoyl)-2,3,3a,4,7,7a-hexahydro-1H-4,7-methanoisoindole-1-carboxamide]	< 0.02	> 10	< 0.1	–	< 0.1	≥ 10	–	–	–	–
CO[C@](C)(C(=O)N[C@H](C(=O)N1C[C@H]2[C@@H]([C@H]1C(=O)N[C@H](C#N)C[C@@H]1CCNC1=O)[C@H]1C=C[C@@H]2C1)C(C)(C)C)C(F)(F)F [Compound 78]	0.02 to 0.2	> 10	1 to 10	–	0.1 to 1	≥ 10	–	–	–	–
C=CC1([C@H](NC(=O)C(F)(F)F)C(=O)N2C[C@H]3[C@@H]([C@H]2C(=O)N[C@H](C#N)C[C@@H]2CCNC2=O)[C@H]2C=C[C@@H]3C2)CCC1 [Compound 68, (1S,3aR,4S,7R,7aS)-N-((S)-1-cyano-2-((S)-2-oxopyrrolidin-3-yl)ethyl)-2-((S)-2-(2,2,2-trifluoroacetamido)-2-(1-vinylcyclobutyl)acetyl)-2,3,3a,4,7,7a-hexahydro-1H-4,7-methanoisoindole-1-carboxamide]	< 0.02	> 10	< 0.1	–	< 0.1	≥ 10	–	–	–	–
CC(C)(C)[C@H](NC(=O)C(F)(F)F)C(=O)N1C[C@@H]2[C@@H]([C@@H]3C=C[C@H]2CC3)[C@@H]1C(=O)N[C@H](C#N)C[C@@H]1CCNC1=O (relative stereo) [Compound 59a, (1R*,3aS*,4R*,7S*,7aR*)-N-((S)-1-cyano-2-((S)-2-oxopyrrolidin-3-yl)ethyl)-2-((S)-3,3-dimethyl-2-(2,2,2-trifluoroacetamido)butanoyl)-2,3,3a,4,7,7a-hexahydro-1H-4,7-ethanoisoindole-1-carboxamide]	0.2 to 2	> 10	–	–	1 to 10	≥ 10	–	> 10	–	–
CC(C)(C)[C@H](NC(=O)C(F)(F)F)C(=O)N1C[C@H]2[C@@H]([C@H]1C(=O)N[C@H](C#N)C[C@@H]1OCCNC1=O)[C@H]1C=C[C@@H]2C1 [Compound 114, (1S,3aR,4S,7R,7aS)-N-((S)-1-cyano-2-((S)-3-oxomorpholin-2-yl)ethyl)-2-((S)-3,3-dimethyl-2-(2,2,2-trifluoroacetamido)butanoyl)-2,3,3a,4,7,7a-hexahydro-1H-4,7-methanoisoindole-1-carboxamide]	< 0.02	> 0.5	< 0.1	–	< 0.1	≥ 10	–	–	–	–
CC(C)(C)[C@H](NC(=O)C12CC(C1)C2)C(=O)N1C[C@H]2[C@@H]([C@H]1C(=O)N[C@H](C#N)C[C@@H]1CCNC1=O)[C@H]1C=C[C@@H]2C1 [Compound 66, (1S,3aR,4S,7R,7aS)-2-((S)-2-(bicyclo[1.1.1]pentane-1-carboxamido)-3,3-dimethylbutanoyl)-N-((S)-1-cyano-2-((S)-2-oxopyrrolidin-3-yl)ethyl)-2,3,3a,4,7,7a-hexahydro-1H-4,7-methanoisoindole-1-carboxamide]	< 0.02	> 10	0.1 to 1	–	0.1 to 1	≥ 10	–	–	–	–
